Reference: the NIST ThermoML archive (doi:10.1016/j.jct.2013.10.017)
± gives the expanded uncertainty stated by the source.

Assay: not given
Settings: 308.2 K; 101.33 kPa; Liquid; Vibrating tube method
In the case of CCn1cc[n+](C)c1.COCCOCCOS(=O)(=O)[O-] [1-ethyl-3-methylimidazolium 2-(2-methoxyethoxy) ethylsulfate], the mass density is reported as 1230.4 ± 1.3 kg/m3.

Same assay, conditions: 313.2 K; 101.33 kPa; Liquid; Vibrating tube method
Work on CCn1cc[n+](C)c1.COCCOCCOS(=O)(=O)[O-] [1-ethyl-3-methylimidazolium 2-(2-methoxyethoxy) ethylsulfate] yielded a mass density of 1226.21 ± 1.3 kg/m3.

Same assay, conditions: 323.2 K; 101.33 kPa; Liquid; Vibrating tube method
With CCn1cc[n+](C)c1.COCCOCCOS(=O)(=O)[O-] [1-ethyl-3-methylimidazolium 2-(2-methoxyethoxy) ethylsulfate] the mass density was 1219.6 ± 1.3 kg/m3.

Same assay, conditions: 333.2 K; 101.33 kPa; Liquid; Vibrating tube method
CCn1cc[n+](C)c1.COCCOCCOS(=O)(=O)[O-] [1-ethyl-3-methylimidazolium 2-(2-methoxyethoxy) ethylsulfate] gave a mass density of 1213.66 ± 1.3 kg/m3.

Assay: refractive index (Na D-line) (dimensionless)
Settings: 308.2 K; 101.33 kPa; Liquid; Standard Abbe refractometry
Work on CCn1cc[n+](C)c1.COCCOCCOS(=O)(=O)[O-] [1-ethyl-3-methylimidazolium 2-(2-methoxyethoxy) ethylsulfate] yielded a refractive index of 1.47929 ± 0.00051.

Same assay, conditions: 313.2 K; 101.33 kPa; Liquid; Standard Abbe refractometry
With CCn1cc[n+](C)c1.COCCOCCOS(=O)(=O)[O-] [1-ethyl-3-methylimidazolium 2-(2-methoxyethoxy) ethylsulfate] the refractive index was 1.47565 ± 0.00051.

Same assay, conditions: 323.2 K; 101.33 kPa; Liquid; Standard Abbe refractometry
CCn1cc[n+](C)c1.COCCOCCOS(=O)(=O)[O-] [1-ethyl-3-methylimidazolium 2-(2-methoxyethoxy) ethylsulfate] gave a refractive index of 1.47281 ± 0.00051.

Same assay, conditions: 333.2 K; 101.33 kPa; Liquid; Standard Abbe refractometry
In the case of CCn1cc[n+](C)c1.COCCOCCOS(=O)(=O)[O-] [1-ethyl-3-methylimidazolium 2-(2-methoxyethoxy) ethylsulfate], the refractive index is reported as 1.46995 ± 0.00051.

Assay: activity coefficient (dimensionless); of the first substance listed, at infinite dilution; xn = mol fraction of the nth substance listed
Settings: 308.15 K; 100 kPa; Liquid; Chromatography; x1 = 0
Work on CCCO [propan-1-ol] + CCn1cc[n+](C)c1.COCCOCCOS(=O)(=O)[O-] yielded an activity coefficient of 1.01 ± 0.05. For C1CCCCCCC1 [cyclooctane] + CCn1cc[n+](C)c1.COCCOCCOS(=O)(=O)[O-], the activity coefficient was 82.6 ± 3.7. In the case of CC1CCCCC1 [methylcyclohexane] + CCn1cc[n+](C)c1.COCCOCCOS(=O)(=O)[O-], the activity coefficient is reported as 71.9 ± 3.2. Work on C#CCCC [1-pentyne] + CCn1cc[n+](C)c1.COCCOCCOS(=O)(=O)[O-] yielded an activity coefficient of 3.62 ± 0.19. With CCCCCCC [heptane] + CCn1cc[n+](C)c1.COCCOCCOS(=O)(=O)[O-] the activity coefficient was 158 ± 7.1. With C#CCCCCC [1-heptyne] + CCn1cc[n+](C)c1.COCCOCCOS(=O)(=O)[O-] the activity coefficient was 9.61 ± 0.48. Work on CO [methanol] + CCn1cc[n+](C)c1.COCCOCCOS(=O)(=O)[O-] yielded an activity coefficient of 0.39 ± 0.027. In the case of CCc1ccccc1 [ethylbenzene] + CCn1cc[n+](C)c1.COCCOCCOS(=O)(=O)[O-], the activity coefficient is reported as 8.04 ± 0.38. C=CCCC [1-pentene] + CCn1cc[n+](C)c1.COCCOCCOS(=O)(=O)[O-] showed an activity coefficient of 26.1 ± 2.4. In the case of CC(C)=O [acetone] + CCn1cc[n+](C)c1.COCCOCCOS(=O)(=O)[O-], the activity coefficient is reported as 1.42 ± 0.07. For C=CCCCC [hex-1-ene] + CCn1cc[n+](C)c1.COCCOCCOS(=O)(=O)[O-], the activity coefficient was 45.6 ± 2.4. In the case of C#CCCCCCCC [1-nonyne] + CCn1cc[n+](C)c1.COCCOCCOS(=O)(=O)[O-], the activity coefficient is reported as 23.9 ± 1.1. Compound CCC(C)=O [butanone] + CCn1cc[n+](C)c1.COCCOCCOS(=O)(=O)[O-] has an activity coefficient of 2.33 ± 0.12. C1CCCCCC1 [cycloheptane] + CCn1cc[n+](C)c1.COCCOCCOS(=O)(=O)[O-] showed an activity coefficient of 60.3 ± 2.9. With CCCCCCCC [octane] + CCn1cc[n+](C)c1.COCCOCCOS(=O)(=O)[O-] the activity coefficient was 215 ± 9.9. For CCCCC [pentane] + CCn1cc[n+](C)c1.COCCOCCOS(=O)(=O)[O-], the activity coefficient was 65.8 ± 4.5. Compound C#CCCCC [1-hexyne] + CCn1cc[n+](C)c1.COCCOCCOS(=O)(=O)[O-] has an activity coefficient of 6.05 ± 0.32. For CCCCCC [hexane] + CCn1cc[n+](C)c1.COCCOCCOS(=O)(=O)[O-], the activity coefficient was 103 ± 4.9. C=CCCCCCCC [1-nonene] + CCn1cc[n+](C)c1.COCCOCCOS(=O)(=O)[O-] showed an activity coefficient of 168 ± 7.6. Work on C1CCCCC1 [cyclohexane] + CCn1cc[n+](C)c1.COCCOCCOS(=O)(=O)[O-] yielded an activity coefficient of 45.4 ± 2.1. Compound CCO [ethanol] + CCn1cc[n+](C)c1.COCCOCCOS(=O)(=O)[O-] has an activity coefficient of 0.719 ± 0.032. C=CCCCCCC [oct-1-ene] + CCn1cc[n+](C)c1.COCCOCCOS(=O)(=O)[O-] showed an activity coefficient of 114 ± 5.6. Work on C=CCCCCC [1-heptene] + CCn1cc[n+](C)c1.COCCOCCOS(=O)(=O)[O-] yielded an activity coefficient of 71.3 ± 4.7. c1ccccc1 [benzene] + CCn1cc[n+](C)c1.COCCOCCOS(=O)(=O)[O-] showed an activity coefficient of 2.31 ± 0.12. In the case of C#CCCCCCC [1-octyne] + CCn1cc[n+](C)c1.COCCOCCOS(=O)(=O)[O-], the activity coefficient is reported as 16.4 ± 0.7. For C1CCCC1 [cyclopentane] + CCn1cc[n+](C)c1.COCCOCCOS(=O)(=O)[O-], the activity coefficient was 27.1 ± 1.3. Compound Cc1ccccc1 [toluene] + CCn1cc[n+](C)c1.COCCOCCOS(=O)(=O)[O-] has an activity coefficient of 4.43 ± 0.21. Compound CCCCCCCCC [nonane] + CCn1cc[n+](C)c1.COCCOCCOS(=O)(=O)[O-] has an activity coefficient of 292 ± 16.

Same assay, conditions: 313.15 K; 100 kPa; Liquid; Chromatography; x1 = 0
CCCO [propan-1-ol] + CCn1cc[n+](C)c1.COCCOCCOS(=O)(=O)[O-] gave an activity coefficient of 0.989 ± 0.056. C1CCCCCCC1 [cyclooctane] + CCn1cc[n+](C)c1.COCCOCCOS(=O)(=O)[O-] showed an activity coefficient of 79.8 ± 3.6. For CC1CCCCC1 [methylcyclohexane] + CCn1cc[n+](C)c1.COCCOCCOS(=O)(=O)[O-], the activity coefficient was 70.6 ± 3.3. For C#CCCC [1-pentyne] + CCn1cc[n+](C)c1.COCCOCCOS(=O)(=O)[O-], the activity coefficient was 3.74 ± 0.25. Work on CCCCCCC [heptane] + CCn1cc[n+](C)c1.COCCOCCOS(=O)(=O)[O-] yielded an activity coefficient of 158 ± 8. Compound C#CCCCCC [1-heptyne] + CCn1cc[n+](C)c1.COCCOCCOS(=O)(=O)[O-] has an activity coefficient of 9.76 ± 0.56. Compound CO [methanol] + CCn1cc[n+](C)c1.COCCOCCOS(=O)(=O)[O-] has an activity coefficient of 0.392 ± 0.027. CCc1ccccc1 [ethylbenzene] + CCn1cc[n+](C)c1.COCCOCCOS(=O)(=O)[O-] showed an activity coefficient of 8.04 ± 0.47. Work on C=CCCC [1-pentene] + CCn1cc[n+](C)c1.COCCOCCOS(=O)(=O)[O-] yielded an activity coefficient of 26.5 ± 1.5. Work on CC(C)=O [acetone] + CCn1cc[n+](C)c1.COCCOCCOS(=O)(=O)[O-] yielded an activity coefficient of 1.46 ± 0.07. C=CCCCC [hex-1-ene] + CCn1cc[n+](C)c1.COCCOCCOS(=O)(=O)[O-] showed an activity coefficient of 44.7 ± 2.2. C#CCCCCCCC [1-nonyne] + CCn1cc[n+](C)c1.COCCOCCOS(=O)(=O)[O-] gave an activity coefficient of 24.7 ± 1.1. CCC(C)=O [butanone] + CCn1cc[n+](C)c1.COCCOCCOS(=O)(=O)[O-] showed an activity coefficient of 2.34 ± 0.13. Compound C1CCCCCC1 [cycloheptane] + CCn1cc[n+](C)c1.COCCOCCOS(=O)(=O)[O-] has an activity coefficient of 58.7 ± 3.2. CCCCCCCC [octane] + CCn1cc[n+](C)c1.COCCOCCOS(=O)(=O)[O-] showed an activity coefficient of 216 ± 9.9. Compound CCCCC [pentane] + CCn1cc[n+](C)c1.COCCOCCOS(=O)(=O)[O-] has an activity coefficient of 65.6 ± 4. For C#CCCCC [1-hexyne] + CCn1cc[n+](C)c1.COCCOCCOS(=O)(=O)[O-], the activity coefficient was 6.22 ± 0.38. With CCCCCC [hexane] + CCn1cc[n+](C)c1.COCCOCCOS(=O)(=O)[O-] the activity coefficient was 102 ± 4.9. In the case of C=CCCCCCCC [1-nonene] + CCn1cc[n+](C)c1.COCCOCCOS(=O)(=O)[O-], the activity coefficient is reported as 168 ± 9.1. C1CCCCC1 [cyclohexane] + CCn1cc[n+](C)c1.COCCOCCOS(=O)(=O)[O-] showed an activity coefficient of 45 ± 2.9. Compound CCO [ethanol] + CCn1cc[n+](C)c1.COCCOCCOS(=O)(=O)[O-] has an activity coefficient of 0.705 ± 0.033. With C=CCCCCCC [oct-1-ene] + CCn1cc[n+](C)c1.COCCOCCOS(=O)(=O)[O-] the activity coefficient was 113 ± 6.1. Work on C=CCCCCC [1-heptene] + CCn1cc[n+](C)c1.COCCOCCOS(=O)(=O)[O-] yielded an activity coefficient of 71.7 ± 3.2. c1ccccc1 [benzene] + CCn1cc[n+](C)c1.COCCOCCOS(=O)(=O)[O-] showed an activity coefficient of 2.33 ± 0.15.
